According to ChEMBL document CHEMBL1141846, “New verticillin and glisoprenin analogues from gliocladium catenulatum, a mycoparasite of aspergillus flavus sclerotia” (1999):

How the values were obtained:
Staphylococcus aureus [1] = experiment: Antibacterial activity against Staphylococcus aureus ATCC 14053 at 100 ug/disk by standard petri-plate assay; assay type: functional; conditions: read-out: IZ
Bacillus subtilis [2] = experiment: Antibacterial activity against Bacillus subtilis ATCC 6051 at 100 ug/disk by standard petri-plate assay; assay type: functional; conditions: read-out: IZ
Bacillus subtilis [3] = experiment: Antibacterial activity against Bacillus subtilis ATCC 6051 at 50 ug/disk by standard petri-plate assay; assay type: functional, organism-based
Staphylococcus aureus [4] = experiment: Antibacterial activity against Staphylococcus aureus ATCC 14053 at 50 ug/disk by standard petri-plate assay; assay type: functional, organism-based

Compound	zone of inhibition at 100 µg/disc (Staphylococcus aureus [1])	zone of inhibition at 100 µg/disc (Bacillus subtilis [2])	inhibition zone (IZ) (Bacillus subtilis [3])	inhibition zone (IZ) (Staphylococcus aureus [4])
CC(=O)[C@@]12SS[C@]3(C(=O)N1C)[C@@H](O)[C@]1([C@@]45c6ccccc6N[C@@H]4N4C(=O)[C@]6(C(C)=O)SS[C@]4(C(=O)N6C)[C@H]5O)c4ccccc4N[C@@H]1N3C2=O [VERTICILLIN E]	11 mm	23 mm	–	–
CC(O)[C@@]12SS[C@]3(C(=O)N1C)[C@@H](O)C1([C@@]45c6ccccc6N[C@@H]4N4C(=O)[C@]6(C(C)O)SS[C@]4(C(=O)N6C)[C@H]5O)c4ccccc4N[C@@H]1N3C2=O (stereo partly drawn) [VERTICILLIN D]	11 mm	23 mm	–	–
GENTAMICIN SULFATE	–	–	25 mm	25 mm
CC(=O)[C@@]12SS[C@]3(C(=O)N1C)[C@@H](O)[C@]1([C@@]45c6ccccc6N[C@@H]4N4C(=O)[C@]6(C(C)O)SS[C@]4(C(=O)N6C)[C@H]5O)c4ccccc4N[C@@H]1N3C2=O (stereo partly drawn) [VERTICILLIN F]	11 mm	23 mm	–	–
